Assay results reported in article PMC4949444 (Scientific Reports, 2016).

Experiments:
[1] = tested on: PPARγ; assay type: cell-based; details: HEK293, GAL4-PPARγ + GAL4-luc, 6 hours
Description: The indicated concentrations were tested and results were plotted to obtain the polynomial trend on a logarithmic range. IC50 values are indicated within the graph. […] HEK293 cells were co-transfected with GAL4-PPARγ and GAL4-luc and incubated with the indicated compound concentrations for 6 hours prior to luciferase activity determination. Results are expressed as the fold induction ± S.D. relative to untreated control. […] All experiments are shown as mean ± S.D. from at least three independent experiments. Statistics: *^,#,†p < 0.05, **^,##,††p < 0.01 and ***^,###p < 0.001. […] To study PPARγ transcriptional activity HEK293 cells were seeded in 24-well plates and transiently co-transfected with the expression vector GAL4-PPARγ and the luciferase reporter vector GAL4-luc using Roti-Fect (Carl Roth, Karlsruhe, Germany) following the manufacturer’s instructions. To correct for transfection efficacy, 100 ng Renilla luciferase (pRL-CMV) was also cotransfected. After stimulation, the luciferase activities were quantified using Dual-Luciferase Assay (Promega, Madison, WI, USA).

[2] = tested on: N2a cells; test: Glutamate-induced excitotoxicity in N2a cells (MTT); assay type: cell-based; details: 15 mM glutamate 24 h
Description: Figure 1 VCE-003.2 synthesis and characterization. (a) Schematic representation of VCE-003.2 synthesis. […] The indicated concentrations were tested and results were plotted to obtain the polynomial trend on a logarithmic range. IC50 values are indicated within the graph. […]. HEK293 cells were co-transfected with GAL4-PPARγ and GAL4-luc and incubated with the indicated compound concentrations for 6 hours prior to luciferase activity determination. Results are expressed as the fold induction ± S.D. relative to untreated control. (d) N2a cells were incubated with VCE-003 and VCE-003.2 as indicated during 24 hours and cell viability was determined by the MTT assay. Results are expressed as percentage of cell viability against the negative control (100%). (e) N2a cells were pre-treated with the compounds for 30 min and incubated during 24 h with 15 mM glutamate and cell viability determined by MTT. Results are expressed as percentage of cell viability against the negative control (100%). All experiments are shown as mean ± S.D. from at least three independent experiments. Statistics: *^,#,†p < 0.05, **^,##,††p < 0.01 and ***^,###p < 0.001. […] | Briefly, N2a cells were seeded at a density of 1 × 10^3 cells/well in 96-well plates, treated with increasing concentrations of VCE-003 or VCE-003.2 for 24 hours and cell viability was measured by the MTT method. […]. […]

[3] = tested on: N2a cells; test: Reactive oxygen species production in N2a cells (CM-H2DCFDA); assay type: cell-based; details: 2 hours
Description: Determination of ROS: N2a cells were seeded at 25x 10^3 cells/ml in 96-well plates and incubated with 0.25 ȝM 5-(and-6 )-chloro meth yl-2ƍ,7ƍ-dichlorodihydrofluorescein diacetate acet yl ester (C M-H 2 DCFDA) for 20 minutes at 37°C. Then, the cells were treated with either VCE-003 or VCE-003.2 for 2 hours. Cells exposed to pro-oxidant tert-Butyl h ydroperoxide (TBHP) were used as positive control. H 2 DCFDA oxidation was detected using an Incuc yteTM Live-Cell Imaging S ystem (Hertfordshire, UK).
Supplementary Figure S1. Non-elect rophilic activity for VCE-003.2. (a) Reactive ox ygen species production. N2a cells were stained with CM-H2DCFDA and treated with VCE-003 or VCE-003.2 for 2 hours. Then, reactive ox ygen sp ecies were measured b y In cu c yt e TM Liv e-Cell Im agin g S ystem. Results are ex pressed as m ean of t otal integrated intensity (ROS positive cells) ± S.D. (b) Effect on Nrf2 transcriptional activity.
VCE-003 treatment vers us Vehicle treated cells.

[4] = tested on: HiB5 cells; test: HiB5 neural progenitor cell viability (MTT); assay type: cell-based
Description: Figure 3 Prosurvival effect of VCE-003.2 in hippocampal neural progenitor HiB5 cells. (a,b) HiB5 cells in proliferative and differentiation conditions respectively were incubated with increasing concentrations of VCE-003.2 and cell viability was assessed using the MTT test after 48 h. (c) Cell viability and ERK1/2 phosphorylation status (activation) was determined in VCE-003.2-treated cells in the absence or presence of GW9662 (5 μM). (d) VCE-003.2 time-dependent regulation of the ERK, Akt and mTORC1 signaling pathways were determined by incubation with anti-phospho-ERK, phospho-Akt and phospho-S6 antibodies. Loading control was performed with α-tubulin antibody. Representative western blots and densitometry quantification of three independent experiments are shown. Values are expressed as means ± S.D. *p < 0.05; **p < 0.01 vs. Vehicle; ^#p < 0.05 vs. VCE-003.2.
The HiB5 hippocampal progenitor cell line (kindly provided by Prof. Z. Kokaia, Lund Stem Cell Center, Sweden) was grown as described[46] in DMEM supplemented with 2 mM glutamine, 1% penicillin/streptomycin and 10% (v/v) fetal calf serum (FCS; Lonza, Switzerland). HiB5 cell cultures were incubated in 5% CO2 at 33 °C, the proliferation-permissive temperature of the oncogenic tsA58 allele of the SV40 large T antigen. Incubation at 37 °C loss of proliferative capacity and neural differentiation. Cell viability was determined after 24 h using the 3-[4,5-dimethylthiazol-2-yl]-2,5-diphenyltetrazolium bromide (MTT) […]. Immortalized mouse striatal STHdh cells (kindly provided by S. Gines, U. Barcelona, Spain) were cultured as described. Cell were transiently transfected with 10 μg doxycycline-inducible CFP-huntingtin-94Q using Amaxa´s Nucleofector following the instructions of the manufacturer (Lonza). In addition STHdh^Q7/Q7 and STHdh^Q111/Q111 expressing endogenous levels of full-length huntingtin with 7 glutamines or 111 glutamines in the protein N-terminal domain, respectively, were used. […]

[5] = tested on: mutant huntingtin (mut-Htt) aggregates in striatal STHdh cells; test: Mutant huntingtin aggregation in transfected STHdh cells; assay type: cell-based, mouse; details: STHdh cells transfected with exon 1 mut-htt, 94 polyglutamine repeats
Description: Figure 4 In vitro neuroprotective action of VCE-003.2. (a) HiB5 cells were treated with quinolinic acid (QA; 2,5 mM) in the presence or the absence of VCE-003.2 (50 and 250 nM) and cell viability was determined after 24 h by the MTT assay. (b) QA-induced apoptosis measured by cleaved caspase 3 immunostaining (upper panel) of differentiating HiB5 cells was quantified in the presence or absence of VCE-003.2 (250 nM). Cell counts were referred to total cell nuclei counterstained with DAPI and c-caspase3^+ cell quantification is shown in the lower panel. […]. (d) Aggregation of mut-Htt was assessed by fluorescence microscopy in immortalized striatal STHdh transfected cells with a CFP-tagged expression vector of mutant huntingtin (mut-Htt) and counterstained with fluorescent phalloidin (upper panel). […]. Results are representative of three independent experiments. Values are expressed as means ± S. D. *p < 0.05 and ***p < 0.001 vs. Vehicle; ^#p < 0.05 ^##p < 0.01 vs. QA. […]
The HiB5 hippocampal progenitor cell line (kindly provided by Prof. Z. Kokaia, Lund Stem Cell Center, Sweden) was grown as described[46] in DMEM supplemented with 2 mM glutamine, 1% penicillin/streptomycin and 10% (v/v) fetal calf serum (FCS; Lonza, Switzerland). […] Cell viability was determined after 24 h using the 3-[4,5-dimethylthiazol-2-yl]-2,5-diphenyltetrazolium bromide (MTT) tesresults int. […]

[6] = tested on: osteoblast-differentiating MSCs; test: Osteoblast differentiation of human mesenchymal stem cells; details: osteoblastogenic medium, 14 days of differentiation
Description: The Reina Sofia University Hospital Review Board approved this study and the procedures followed were in accordance with the ethical standards of the ethic committee from Hospital Reina Sofía and with the Declaration of Helsinki. Bone marrow donors were recruited by the Haematology Service. All subjects gave their informed consent so that the bone marrow aliquots extracted for clinical purposes could also be used for mesenchymal bone marrow research. […] Adipogenic and osteoblast differentiation was performed as described[22]. Treatment with RZG and VCE-003.2 started at the same time as the differentiation process. […] The images captured with the light microscope were analyzed with the ImageJ Software (NIH; Bethesda, MD, USA).
Cells were collected at day 14 of differentiation and total RNA was extracted using the High Pure RNA Isolation kit (Roche Diagnostics). The total amount of RNA extracted was quantified using NanoDrop 2000 (Thermo Fisher Scientific Inc). Total RNA (1 μg) was retrotranscribed using the iScriptTM cDNA Synthesis Kit (Bio-Rad; Hercules, CA, USA), and the cDNA generated was analyzed by real-time PCR, using the iQ^TM SYBR Green Supermix (Bio-Rad; Hercules, CA, USA). Real-time PCR to quantify the mRNA of osteoblastic and adipocityc markers was performed using a CFX96 Real-time PCR Detection System (Bio-Rad; Hercules, CA, USA). […]

SMILES: CCCCCC1=C(NCC)C(=O)C(C/C=C(\C)CCC=C(C)C)=C(O)C1=O [VCE-003.2]
- PPARγ transcriptional activity (transactivation) [1]: induced PPARγ transactivation in a concentration-dependent manner
- prevention of glutamate-induced excitotoxicity [2]: able to prevent excitotoxicity induced by glutamate
- induction of reactive oxygen species (ROS) [3]: none of these bioactivities were induced
- cell viability, proliferative conditions ([4]; HiB5, 50 nM to 50 μM, MTT): not toxic even at the highest concentrations employed
- cell viability during neuronal differentiation ([4]; HiB5, differentiation conditions, increasing concentrations, MTT): exerted a prosurvival activity at lower concentrations, while at high concentrations it was toxic and reduced cell viability
- prosurvival action in presence of PPARγ antagonist ([4]; VCE-003.2 250 nM + GW9662 5 μM): prevented
- cells with mut-Htt aggregates [5]: reduced the number of cells with aggregates
- expression of osteogenic differentiation markers Runx2, SP7, ALP, IBSP [6]: mild and did not inhibit the expression of osteogenic differentiation markers
